The experiment concerns the target T1, Peroxisome proliferator-activated receptor gamma (Homo sapiens, UniProt P37231).
T1 sequence (P37231 whole entry): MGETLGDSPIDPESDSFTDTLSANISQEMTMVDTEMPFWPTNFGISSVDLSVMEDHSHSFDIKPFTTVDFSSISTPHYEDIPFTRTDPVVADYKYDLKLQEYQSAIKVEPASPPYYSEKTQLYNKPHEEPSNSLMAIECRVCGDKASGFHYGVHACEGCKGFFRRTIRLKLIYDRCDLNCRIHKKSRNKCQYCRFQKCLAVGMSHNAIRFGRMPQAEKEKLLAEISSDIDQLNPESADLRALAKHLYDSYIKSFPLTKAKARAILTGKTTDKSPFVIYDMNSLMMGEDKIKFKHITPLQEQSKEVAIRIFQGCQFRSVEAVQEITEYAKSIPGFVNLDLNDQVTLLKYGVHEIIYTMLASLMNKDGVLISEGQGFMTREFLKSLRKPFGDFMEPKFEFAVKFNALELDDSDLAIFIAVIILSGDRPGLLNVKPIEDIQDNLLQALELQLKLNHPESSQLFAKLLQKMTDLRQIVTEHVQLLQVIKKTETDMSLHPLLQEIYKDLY

What is called IC50 is the concentration needed to halve the response being measured.

Description: Displacement of [3H]rosiglitazone from PPAR gamma

As to `CC1=C(C(=O)O)C(c2ccc(OCCn3c4ccccc4c4ccccc43)cc2)NC(=O)N1` (centres undefined), the IC50 came out at 900 nM.

`COc1cc(C2NC(=O)NC(C)=C2C(=O)O)ccc1OCCn1c2ccccc2c2ccccc21` (centres undefined): the IC50 is 820 nM.

With `CC1=C(C(=O)O)C(c2ccc(OCCOc3cccc4[nH]c5ccccc5c34)cc2)NC(=O)N1` (centres undefined), 1000 nM corresponded to half-maximal inhibition (IC50).

The molecule `CC1=C(C(=O)O)C(c2ccc(OCCOc3cccc4ccc(C)nc34)cc2)NC(=O)N1` (centres undefined) yielded an IC50 of 600 nM.

The molecule `COc1cc(C2NC(=O)NC(C)=C2C(=O)O)ccc1OCCOc1cccc2ccc(C)nc12` (centres undefined) showed an IC50 of 800 nM.

`CC1=C(C(=O)O)C(c2ccc(OCCn3ccc4cccnc43)cc2)NC(=O)N1` (centres undefined) registered an IC50 of 1000 nM.

In turn, `COc1cc(C2NC(=O)NC(C)=C2C(=O)O)ccc1OCCn1ccc2cccnc21` (centres undefined) gave an IC50 of 720 nM.

`CC1=C(C(=O)O)C(c2ccc(OCCOc3cc(C)nc4ccccc34)cc2)NC(=O)N1` (centres undefined) returned an IC50 of 760 nM.

As for `COc1cc(C2NC(=O)NC(C)=C2C(=O)O)ccc1OCCOc1cc(C)nc2ccccc12` (centres undefined), the IC50 stood at 940 nM.

In turn, `COc1cccc2c1c1ccccc1n2CCOc1ccc(C2NC(=O)NC(C)=C2C(=O)O)cc1` (centres undefined) showed an IC50 of 800 nM.

The molecule `CC1=C(C(=O)O)C(c2ccc(OCCCn3ccc4cccnc43)cc2)NC(=O)N1` (centres undefined) showed an IC50 of 750 nM.

In turn, `CC1=C(C(=O)O)C(c2ccc(OCCCOc3cc(C)nc4ccccc34)cc2)NC(=O)N1` (centres undefined) showed an IC50 of 750 nM.

The molecule `CC1=C(C(=O)O)C(c2ccc(OCCOc3ccc(C(=O)c4ccc(Cl)cc4)cc3)cc2)NC(=O)N1` (centres undefined) returned an IC50 of 930 nM.

With `CC1=C(C(=O)O)C(c2ccc(OCCCOc3cccc4[nH]c5ccccc5c34)cc2)NC(=O)N1` (centres undefined), half-maximal inhibition (IC50) was put at 900 nM.

The record behind these values is ChEMBL document CHEMBL1145436, “Design and synthesis of 6-methyl-2-oxo-1,2,3,4-tetrahydro-pyrimidine-5-carboxylic acid derivatives as PPARgamma activators” (Bioorg Med Chem Lett, 2007).
